Patent publication US10696651B2, “Heterocyclic compound” (Takeda Pharmaceutical Company Limited, priority 2016, dated 2020)
Structures can show the parent of a compound that is named as a salt. Where two headings read alike, the source gives them in different places.

Assays:
[1] = tested on: osteosarcoma cell line U-2-OS; assay: In vitro cell proliferation inhibition assay (CellTiter-Glo, low amino acid media); type: cell-based; conditions: McCoy's 5A low amino acid media; for inhibition at 0.1 µM: Homo sapiens, U2OS, 72 h, cell proliferation inhibitory rate; for inhibitory rate: 72 hr
Experimental: A cell suspension (40 μL) (1000 cells/well) of osteosarcoma cell line U-2-OS obtained from ATCC (American Type Culture Collection) was seeded on a 384 plate using McCoy's 5A low amino acid media (amino acid content 25%). The seeded cells were incubated (37° C., 5% CO2) overnight to 24 hr at the longest. Each example compound was dissolved (10 mM) in DMSO, delivered to wells by using TECAN HP D300 (TECAN), and the plate was incubated for 72 hr (37° C., 5% CO2). A well without addition of compound was treated similarly as a control group. Celltiter-Glo (registered trade mark) Luminescent Cell Viability Assay reagent (Promega KK) equilibrated at room temperature was added (40 μL/well) to cells in each well before compound treatment (untreated group) and 72 hours after compound treatment. After incubation for 10 min, cell proliferation inhibitory rate was measured by the amount of ATP which is a cell viability marker. Luminescence of cells showing ATP amount was measured using ARVO MX (PerkinElmer). Based on the luminescence values of the untreatment group, the control group without addition of Example compound solution, and the treatment group with addition of Example compound, the cell proliferation inhibitory rate (%) of the test compound at a compound concentration of 100 nM was calculated by the following formula and the results thereof are shown in Tables 4-1, 4-2. Inhibitory rate (%)=(1−(luminescence value of treatment group−luminescence value of untreatment group)÷(luminescence value of control group−luminescence value of untreatment group))×100

[2] = biological target: T1, human GCN2 full-length protein (Homo sapiens, UniProt Q9P2K8); assay: GCN2 enzyme inhibition assay (LanthaScreen TR-FRET); type: biochemical; conditions: GCN2 enzyme inhibitory activity at compound concentration of 3 μM; for inhibition at 3 µM: read-out: inhibitory rate
T1 construct: purchased Carna Biosciences, Inc
Experimental: GCN2 enzyme was preserved at -70° C. and used. The GCN2 enzyme inhibitory activity of the test compound was measured by the LanthaScreenTR-FRET (Time Resolved Fluorescence Resonance Energy Transfer) method (manufactured by ThermoFisher). […] Then, GCN2 enzyme solution diluted with the assay buffer was added by 2 μL to each well. The enzyme solution was not added to a part of the wells to give a control group. After incubation at room temperature for 1 hr, 570 μM ATP solution containing 390 nM […] physiological protein substrate (ThermoFisher) was added by 2 μL. After reaction at room temperature for 1 hr, TR-FRET Dilution Buffer (ThermoFisher) containing 4 nM Terbium-labeled anti-elF2alpha [[…]] antibody (ThermoFisher) dissolved therein was added by 2 μL to each well. After standing at room temperature for 1 hr, time decomposition fluorescence measurement was performed on platereader Envision (manufactured by PerkinElmer).

T1 sequence (Q9P2K8 whole entry): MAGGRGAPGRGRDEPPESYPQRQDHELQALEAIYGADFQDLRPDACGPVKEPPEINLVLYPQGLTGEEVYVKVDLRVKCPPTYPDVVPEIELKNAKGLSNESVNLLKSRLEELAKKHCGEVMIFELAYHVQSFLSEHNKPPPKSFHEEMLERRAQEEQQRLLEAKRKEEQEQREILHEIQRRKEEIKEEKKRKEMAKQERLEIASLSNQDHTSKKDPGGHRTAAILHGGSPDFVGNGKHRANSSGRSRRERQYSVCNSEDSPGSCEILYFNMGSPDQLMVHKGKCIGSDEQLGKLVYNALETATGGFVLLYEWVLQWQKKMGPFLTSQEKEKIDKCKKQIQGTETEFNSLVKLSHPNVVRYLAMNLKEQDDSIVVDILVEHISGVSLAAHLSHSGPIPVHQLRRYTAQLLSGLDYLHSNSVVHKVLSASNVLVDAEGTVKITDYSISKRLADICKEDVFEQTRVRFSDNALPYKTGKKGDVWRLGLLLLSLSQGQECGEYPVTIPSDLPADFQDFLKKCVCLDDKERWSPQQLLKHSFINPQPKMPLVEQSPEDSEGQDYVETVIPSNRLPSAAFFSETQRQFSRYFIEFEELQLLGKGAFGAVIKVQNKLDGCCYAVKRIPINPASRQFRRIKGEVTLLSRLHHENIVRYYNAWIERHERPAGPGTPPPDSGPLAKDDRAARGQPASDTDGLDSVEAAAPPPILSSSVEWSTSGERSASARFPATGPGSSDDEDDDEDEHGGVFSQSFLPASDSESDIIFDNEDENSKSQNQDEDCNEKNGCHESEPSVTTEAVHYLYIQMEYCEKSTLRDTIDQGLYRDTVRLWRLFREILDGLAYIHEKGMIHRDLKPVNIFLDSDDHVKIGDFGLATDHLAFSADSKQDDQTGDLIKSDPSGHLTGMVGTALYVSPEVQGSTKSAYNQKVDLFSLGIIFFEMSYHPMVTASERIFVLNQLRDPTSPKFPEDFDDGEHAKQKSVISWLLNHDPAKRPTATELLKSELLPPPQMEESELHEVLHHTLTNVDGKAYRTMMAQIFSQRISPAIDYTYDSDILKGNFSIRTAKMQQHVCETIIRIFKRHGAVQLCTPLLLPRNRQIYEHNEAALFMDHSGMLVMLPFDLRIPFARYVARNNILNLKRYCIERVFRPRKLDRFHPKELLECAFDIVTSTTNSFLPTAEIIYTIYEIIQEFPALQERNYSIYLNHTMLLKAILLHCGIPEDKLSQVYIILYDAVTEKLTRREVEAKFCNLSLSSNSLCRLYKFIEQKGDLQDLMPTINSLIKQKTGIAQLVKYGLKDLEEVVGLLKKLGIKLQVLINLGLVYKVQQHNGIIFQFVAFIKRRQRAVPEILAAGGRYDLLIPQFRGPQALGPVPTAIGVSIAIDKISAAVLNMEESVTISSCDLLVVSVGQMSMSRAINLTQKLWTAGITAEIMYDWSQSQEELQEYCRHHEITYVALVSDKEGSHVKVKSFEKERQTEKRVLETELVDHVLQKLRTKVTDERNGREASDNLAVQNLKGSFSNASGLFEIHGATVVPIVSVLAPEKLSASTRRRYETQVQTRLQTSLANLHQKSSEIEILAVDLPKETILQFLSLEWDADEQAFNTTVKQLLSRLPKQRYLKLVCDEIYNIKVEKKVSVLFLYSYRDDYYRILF

| Compound | inhibition at 0.1 µM ([1]; Table 4-2) | inhibition at 3 µM ([2]; Table 3-2) | inhibition at 0.1 µM ([1]; Table 4-1) | inhibition at 3 µM ([2]; Table 3-1) | also measured |
| --- | --- | --- | --- | --- | --- |
| O=S(=O)(Nc1ccc(F)c(C#Cc2cnc(N[C@H]3CC[C@H](O)CC3)nc2)c1F)c1cc(Cl)cc(CO)c1Cl [Example 176, 2,5-dichloro-N-(2,4-difluoro-3-((2-((trans-4-hydroxycyclohexyl)amino)pyrimidin-5-yl)ethynyl)phenyl)-3-(hydroxymethyl)benzenesulfonamide] | 77% | 100% |  |  |  |
| COc1c(CO)cc(Cl)cc1S(=O)(=O)Nc1ccc(F)c(C#Cc2cnc(NCCO)nc2)c1F [Example 149, 5-chloro-N-(2,4-difluoro-3-((2-((2-hydroxyethyl)amino)pyrimidin-5-yl)ethynyl)phenyl)-3-(hydroxymethyl)-2-methoxybenzenesulfonamide] | 70% | 99% |  |  |  |
| CCNc1ncc(C#Cc2c(F)ccc(NS(=O)(=O)c3cc(Cl)cc(CO)c3OC)c2F)cn1 [Example 137, 5-chloro-N-(3-((2-(ethylamino)pyrimidin-5-yl)ethynyl)-2,4-difluorophenyl)-3-(hydroxymethyl)-2-methoxybenzenesulfonamide] | 75% | 99% |  |  |  |
| C[C@H](CO)Nc1ncc(C#Cc2c(F)ccc(NS(=O)(=O)c3cc(Cl)cc4c3OCC4O)c2F)cn1 (stereo partly drawn) [Example 186, 5-chloro-N-(2,4-difluoro-3-((2-(((2R)-1-hydroxypropan-2-yl)amino)pyrimidin-5-yl)ethynyl)phenyl)-3-hydroxy-2,3-dihydro-1-benzofuran-7-sulfonamide] |  |  |  |  | inhibitory rate ([1]; Table 4-2): 43%; inhibitory rate ([2]; Table 3-2, 3 µM): 100% |
| O=S(=O)(Nc1ccc(F)c(C#Cc2cnc3[nH]ncc3c2)c1F)c1cc(Cl)cc2c1OCC2 [Example 8, 5-chloro-N-(2,4-difluoro-3-(1H-pyrazolo[3,4-b]pyridin-5-ylethynyl)phenyl)-2,3-dihydro-1-benzofuran-7-sulfonamide] |  |  | 78% | 100% |  |
| COc1c(CO)cc(Cl)cc1S(=O)(=O)Nc1ccc(F)c(C#Cc2cnc(NCC3CCOC3)nc2)c1F (centres unmarked) [Example 145, 5-chloro-N-(2,4-difluoro-3-((2-((tetrahydrofuran-3-ylmethyl)amino)pyrimidin-5-yl)ethynyl)phenyl)-3-(hydroxymethyl)-2-methoxybenzenesulfonamide] | 69% | 99% |  |  |  |
| COc1c(CO)cc(Cl)cc1S(=O)(=O)Nc1ccc(F)c(C#Cc2cnc(NC3COC3)nc2)c1F [Example 140, 5-chloro-N-(2,4-difluoro-3-((2-(oxetan-3-ylamino)pyrimidin-5-yl)ethynyl)phenyl)-3-(hydroxymethyl)-2-methoxybenzenesulfonamide] | 76% | 99% |  |  |  |
| O=S(=O)(Nc1ccc(F)c(C#Cc2cnc3[nH]ncc3c2)c1F)c1cc(Cl)cc(CO)c1Cl [Example 1, 2,5-dichloro-N-(2,4-difluoro-3-(1H-pyrazolo[3,4-b]pyridin-5-ylethynyl)phenyl)-3-(hydroxymethyl)benzenesulfonamide] |  |  | 66% | 100% |  |
| CNc1ncc(Cl)cc1S(=O)(=O)Nc1ccc(F)c(C#Cc2cnc(N[C@H]3CC[C@H](O)CC3)nc2)c1F [Example 182, 5-chloro-N-(2,4-difluoro-3-((2-((trans-4-hydroxycyclohexyl)amino)pyrimidin-5-yl)ethynyl)phenyl)-2-(methylamino)pyridine-3-sulfonamide] | 71% | 102% |  |  |  |
| CNc1ncc(Cl)cc1S(=O)(=O)Nc1ccc(F)c(C#Cc2cnc(N)nc2)c1F [Example 171, N-(3-((2-aminopyrimidin-5-yl)ethynyl)-2,4-difluorophenyl)-5-chloro-2-(methylamino)pyridine-3-sulfonamide] | 82% | 100% |  |  |  |
| COc1c(Cl)cc(Cl)cc1S(=O)(=O)Nc1ccc(F)c(C#Cc2cnc3[nH]ncc3c2)c1F [Example 33, 3,5-dichloro-N-(2,4-difluoro-3-(1H-pyrazolo[3,4-b]pyridin-5-ylethynyl)phenyl)-2-methoxybenzenesulfonamide] |  |  | 40% | 98% |  |
| COc1c(CO)cc(Cl)cc1S(=O)(=O)Nc1ccc(F)c(C#Cc2cnc(NC3CCOC3)nc2)c1F (centres unmarked) [Example 141, 5-chloro-N-(2,4-difluoro-3-((2-(tetrahydrofuran-3-ylamino)pyrimidin-5-yl)ethynyl)phenyl)-3-(hydroxymethyl)-2-methoxybenzenesulfonamide] | 75% | 99% |  |  |  |
| Cc1ncc(Cl)cc1S(=O)(=O)Nc1ccc(F)c(C#Cc2cnc3[nH]ncc3c2)c1F [Example 2, 5-chloro-N-(2,4-difluoro-3-(1H-pyrazolo[3,4-b]pyridin-5-ylethynyl)phenyl)-2-methylpyridine-3-sulfonamide] |  |  | 92% | 100% |  |
| C[C@H](CO)Nc1ncc(C#Cc2c(F)ccc(NS(=O)(=O)c3cc(Cl)cc(CO)c3Cl)c2F)nn1 [Example 178, 2,5-dichloro-N-(2,4-difluoro-3-((3-(((2R)-1-hydroxypropan-2-yl)amino)-1,2,4-triazin-6-yl)ethynyl)phenyl)-3-(hydroxymethyl)benzenesulfonamide] | 74% | 100% |  |  |  |
| C[C@H](CO)Nc1ncc(C#Cc2c(F)ccc(NS(=O)(=O)c3cc(Cl)cc(CO)c3Cl)c2F)cn1 [Example 180, 2,5-dichloro-N-(2,4-difluoro-3-((2-(((2R)-1-hydroxypropan-2-yl)amino)pyrimidin-5-yl)ethynyl)phenyl)-3-(hydroxymethyl)benzenesulfonamide] | 76% | 103% |  |  |  |
| Cc1cc(Br)cc(S(=O)(=O)Nc2ccc(F)c(C#Cc3cnc4[nH]ncc4c3)c2F)c1 [Example 18, 3-bromo-N-(2,4-difluoro-3-(1H-pyrazolo[3,4-b]pyridin-5-ylethynyl)phenyl)-5-methylbenzenesulfonamide] |  |  | 63% | 100% |  |
| O=S(=O)(Nc1ccc(F)c(C#Cc2cnc(N[C@H]3CC[C@H](O)CC3)nc2)c1F)c1cc(Cl)cc2c1OCC2O (stereo partly drawn) [Example 185, 5-chloro-N-(2,4-difluoro-3-((2-((trans-4-hydroxycyclohexyl)amino)pyrimidin-5-yl)ethynyl)phenyl)-3-hydroxy-2,3-dihydro-1-benzofuran-7-sulfonamide] | 56% | 100% |  |  |  |
| O=S(=O)(Nc1ccc(F)c(C#Cc2cnc3[nH]ncc3c2)c1F)c1cc(Br)ccc1F [Example 24, 5-bromo-N-(2,4-difluoro-3-(1H-pyrazolo[3,4-b]pyridin-5-ylethynyl)phenyl)-2-fluorobenzenesulfonamide TFA Salt] |  |  | 37% | 99% |  |
| O=S(=O)(Nc1ccc(F)c(C#Cc2cnc3[nH]ncc3c2)c1F)c1cc(Cl)cc(Cl)c1Cl [Example 20, 2,3,5-trichloro-N-(2,4-difluoro-3-(1H-pyrazolo[3,4-b]pyridin-5-ylethynyl)phenyl)benzenesulfonamide] |  |  | 63% | 100% |  |
| Cc1ncc(Cl)cc1S(=O)(=O)Nc1ccc(F)c(C#Cc2cnc(N[C@@H](C)CO)nc2)c1F [Example 193, 5-chloro-N-(2,4-difluoro-3-((2-(((2S)-1-hydroxypropan-2-yl)amino)pyrimidin-5-yl)ethynyl)phenyl)-2-methylpyridine-3-sulfonamide] | 64% | 98% |  |  |  |
| C[C@H](CO)Nc1ncc(C#Cc2c(F)ccc(NS(=O)(=O)c3cc(Cl)cc4c3OCC4O)c2F)cn1 (stereo partly drawn) [Example 184, 5-chloro-N-(2,4-difluoro-3-((2-(((2R)-1-hydroxypropan-2-yl)amino)pyrimidin-5-yl)ethynyl)phenyl)-3-hydroxy-2,3-dihydro-1-benzofuran-7-sulfonamide] |  | 99% |  |  | inhibitory rate ([1]; Table 4-2): 59% |
| Nc1ncc(C#Cc2c(F)ccc(NS(=O)(=O)c3cc(Cl)cc4c3OCC4O)c2F)cn1 (centres unmarked) [Example 159, N-(3-((2-aminopyrimidin-5-yl)ethynyl)-2,4-difluorophenyl)-5-chloro-3-hydroxy-2,3-dihydro-1-benzofuran-7-sulfonamide] | 60% | 99% |  |  |  |
